Assay results as given in patent US9006454B2, “Dihydroorotate dehydrogenase inhibitors” (Merck Serono S.A., priority 2009, dated 2015).

Columns and labels:
[1] = target: DHODH (Homo sapiens (Human), UniProt Q02127); assay: DHODH activity assay (coupled enzyme assay, DCIP reduction, absorbance at 610 nm); format: biochemical; conditions: for inhibition at 10 µM: read-out: inh @ 10 uM hDHODH (%)
[2] = test system: Jurkat cells; assay: Measurement of cell proliferation (Jurkat cell), XTT assay; format: cell-based; conditions: for inhibition at 1 µM: compound at 1 uM, read-out: % inh Jurkat_cells @ 1 uM (%); for EC50: XTT cell viability
Outline: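 Jurkat T cells, 100,000 per well in RPMI with 10% FBS, exposed 72 h at 37 °C to serial compound dilutions (typically from 10 μM, half-log steps, triplicate) at 0.25–0.5% DMSO. Viability by XTT/PMS, A465 after 2 h, media background subtracted, untreated cells as 100%; EC50 from curve fit.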

Chain of DHODH (Q02127 whole entry): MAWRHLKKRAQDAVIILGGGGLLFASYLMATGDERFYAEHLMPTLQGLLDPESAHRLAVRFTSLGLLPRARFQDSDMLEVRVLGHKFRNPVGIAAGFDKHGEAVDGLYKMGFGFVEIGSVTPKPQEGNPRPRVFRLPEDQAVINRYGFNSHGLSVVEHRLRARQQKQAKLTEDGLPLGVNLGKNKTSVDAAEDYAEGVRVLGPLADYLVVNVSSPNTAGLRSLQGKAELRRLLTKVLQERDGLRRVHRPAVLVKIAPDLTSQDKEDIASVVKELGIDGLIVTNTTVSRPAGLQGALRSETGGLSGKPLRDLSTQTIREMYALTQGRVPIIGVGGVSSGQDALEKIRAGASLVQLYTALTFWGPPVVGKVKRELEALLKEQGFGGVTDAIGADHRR

SMILES	inhibition at 10 µM ([1]; compound at 10 uM)	inhibition at 1 µM ([2]; Homo sapiens, Jurkat)	IC50 [1]	EC50 ([2]; Homo sapiens, Jurkat, 72 h)	inh @ 10 uM hDHODH (%) ([1]; compound at 10 uM)	EC50 ([2]; 72 hrs)
O=C(O)c1cccc2[nH]c(-c3ccc(-c4ccsc4)cc3)nc12 [I22]	57.3%	15.3%				
Cc1cc(C(=O)O)c2nc(-c3ccc(-c4cccnc4)cc3)[nH]c2c1 [I59]	99.2%	73.5%	407 nM	450 nM		
COc1cccc(-c2ccc(-c3nc4c(C(=O)O)cccc4[nH]3)c(F)c2)c1 [I3]			616 nM		92.6%	753 nM
Cc1cc(C(=O)O)c2nc(-c3ccc(Oc4c(F)c(F)c(F)c(F)c4F)cc3)[nH]c2c1 [I72, 6-Methyl-2-(4-pentafluorophenyloxy-phenyl)-1H-benzoimidazole-4-carboxylic acid]	38%	9%				
COC(=O)c1cc(C)cc2[nH]c(-c3c(F)c(F)c(-c4ccccc4)c(F)c3F)nc12 [I176]	45%	7%				
Cc1cc(C(=O)O)c2nc(-c3ccc(-c4cccc(O)c4)cc3)[nH]c2c1 [I116]	78%	59%	862 nM			
Cc1cc(-c2nnc(O)o2)c2nc(-c3ccc(-c4ccccc4)cc3)[nH]c2c1 [I165]	46%	29.7%				
O=Cc1ccc(-c2ccc(-c3nc4c(C(=O)O)cccc4[nH]3)cc2)cc1 [I181]	40.4%	9.4%				
O=C(O)c1cccc2[nH]c(-c3c(F)c(F)c(-c4ccc(F)cc4)c(F)c3F)nc12 [I133]	101%	54.7%	808 nM			
Cc1cc(C(=O)O)c2nc(-c3ccc(-c4cccc(OCc5ccccc5)c4)cc3)[nH]c2c1 [I115]	88%	52%	1200 nM			
O=C(O)c1cccc2[nH]c(-c3ccc(-c4ccccc4)nc3)nc12 [I50]	64.7%	21%				
O=C(O)c1cccc2[nH]c(-c3ccc(Oc4c(F)cccc4F)cc3)nc12 [I56]	83.2%	38.8%	1570 nM			
Cc1cc(C(=O)O)c2[nH]c(-c3ccc(-c4ccc(OCCO)cc4)cc3)nc2c1 [I99]	71%	27.7%	3100 nM			
O=C(O)c1cc(F)cc2nc(-c3ccc4cc[nH]c4c3)[nH]c12 [I37]	13.7%	6.9%				
O=C(O)c1cccc2nc(-c3ccc(-c4ccc(F)cc4F)cc3F)[nH]c12 [I30]	68.1%	31.5%				
Cc1cc(C(=O)O)c2nc(-c3ccc(-c4ccc(O)cc4)cc3)[nH]c2c1 [I117]	102%	76%	350 nM			
Cc1cc(C(=O)O)c2[nH]c(-c3ccc(-c4c(F)cccc4F)cc3)nc2c1 [I76, 2-(2′,6′-Difluoro-biphenyl-4-yl)-6-methyl-3H-benzoimidazole-4-carboxylic acid]	100%	83.5%	344 nM			
Cc1cc(C(=O)O)c2nc(-c3ccc(-c4ccc(Oc5ccc(C=O)cc5)cc4)cc3)[nH]c2c1 [I135]	65.1%	21.8%	1590 nM			
Cc1cc(C(=O)O)c2nc(-c3ccc(-c4cnn(Cc5ccccc5)c4)cc3)[nH]c2c1 [I111]	91%	62%	155 nM			
O=C(O)c1cccc2[nH]c(-c3ccc(-c4ccccc4)cc3)nc12 [I1]	93.9%		795 nM	645 nM		
Cc1cc(C(=O)O)c2nc(-c3c(F)c(F)c(-c4ccccc4F)c(F)c3F)[nH]c2c1 [I140]	100%	101%	3.5 nM	33 nM		
Cc1cc(C(=O)O)c2nc(-c3ccc(-c4ccc(Oc5ccccn5)cc4)cc3)[nH]c2c1 [I171]	86%	35%				
O=C(O)c1cccc2[nH]c(-c3c(F)c(F)c(-c4cccc(F)c4F)c(F)c3F)nc12 [I128]	73.1%	64.9%	209 nM			
Cc1ccc(C)n1-c1c(F)c(F)c(-c2nc3cccc(C(=O)O)c3[nH]2)c(F)c1F [I110]	106%	97%	110 nM			
O=C(O)c1cccc2nc(-c3ccc(-c4ccc(F)cc4F)cc3)[nH]c12 [I32]	69.6%	21.1%				
Cc1cc(C(=O)O)c2nc(-c3ccc(-c4ccc(OCCCN5CCCC5)cc4)cc3)[nH]c2c1 [I152]	47.2%	23.8%				
Cc1cc(C(=O)O)c2[nH]c(-c3ccc(-c4ccccc4F)cc3)nc2c1 [I26]	93.9%	75.9%	373 nM	105 nM		
Cc1cc(C(=O)O)c2[nH]c(-c3ccc(-c4cccc(OCCC5CCNCC5)c4)cc3)nc2c1 [I153]	53.4%	15.1%				

SMILES	inhibition at 10 µM ([1]; compound at 10 uM)	inhibition at 1 µM ([2]; Homo sapiens, Jurkat)	IC50 [1]	EC50 ([2]; Homo sapiens, Jurkat, 72 h)	inh @ 10 uM hDHODH (%) ([1]; compound at 10 uM)	EC50 ([2]; 72 hrs)
O=C(O)c1cccc2[nH]c(-c3c(F)c(F)c(-c4ccc(OCc5ccccc5)cc4)c(F)c3F)nc12 [I132]	91.5%	67.8%	378 nM			
O=C(O)c1cccc2[nH]c(-c3c(F)c(F)c(Oc4ccccc4)c(F)c3F)nc12 [I188]	41.5%	17%				
O=C(O)c1cccc2[nH]c(-c3ccc(-c4ccccc4F)cc3)nc12 [I15]	96.4%	64.4%	490 nM			
Cc1cc(C(=O)O)c2nc(-c3ccc(-c4ccc(OCc5cccnc5)cc4)cc3)[nH]c2c1 [I120]	89.9%	66.1%	755 nM			
Cc1cc(-c2nnn[nH]2)c2nc(-c3c(F)c(F)c(-c4ccccc4)c(F)c3F)[nH]c2c1 [I103]	107%	64.2%	1200 nM			
O=C(O)c1cccc2nc(-c3ccc(-c4ccccc4)cc3)oc12 [I19]	80.1%	34.3%	3030 nM			
O=C(O)c1cccc2nc(-c3ccc(-c4ccccn4)cc3)[nH]c12 [I73, 2-(4-Pyridin-2-yl-phenyl)-3H-benzoimidazole-4-carboxylic acid]	29.6%	13.6%				
Cc1cc(C(=O)O)c2[nH]c(-c3ccc(-c4ccccc4OCc4ccccc4)cc3)nc2c1 [I106]	91%	48%	1500 nM			
Cc1cc(C(=O)O)c2[nH]c(-c3ccc(-c4ccccc4)nc3)nc2c1 [I75, 6-Methyl-2-(6-phenyl-pyridin-3-yl)-3H-benzoimidazole-4-carboxylic acid]	82.4%	39.3%	3820 nM			
Cc1cc(C(=O)O)c2nc(-c3ccc(-c4ccsc4)cc3)[nH]c2c1 [I23]	77.8%	33.9%				
Cc1cc(C(=O)O)c2nc(-c3ccc(-c4ccc(Oc5ccccc5C#N)cc4)cc3)[nH]c2c1 [I112]	85%	49%	2030 nM			
Cc1cc(C(=O)O)c2nc(-c3ccc(-c4cccc(NC(=O)C5CCCN5)c4)cc3)[nH]c2c1 (stereo not shown) [I150]	30.5%	15.4%				
Cc1cc(C(=O)O)c2nc(-c3ccc(-c4ccc(OCCCN5CCCCC5)cc4)cc3)[nH]c2c1 [I88]	82.9%	40.3%	1630 nM			
Cc1cc(C(=O)O)c2[nH]c(-c3ccc(-c4ccc(CNC(C)C)cc4)cc3)nc2c1 [I160]	57.4%	19.6%				
O=C(O)c1cc(F)cc2nc(-c3ccc(-c4ccc(F)cc4F)cc3F)[nH]c12 [I34]	82%	41.8%				
O=C(O)c1cccc2[nH]c(-c3cccc(Oc4ccccc4)c3)nc12 [I9]	64%	20%	7200 nM			
Cc1cc(C(=O)O)c2c(c1)nc(-c1ccc(-c3ccc(O)cc3)cc1)n2CCO [I97]	80%	37.6%	2140 nM			
O=C(O)c1cccc2[nH]c(-c3c(F)c(F)c(-c4ccccc4)c(F)c3F)nc12 [I21]	97.3%	92.4%	38 nM	238 nM		
O=C(O)c1cccc2[nH]c(-c3ccc(-c4cccs4)cc3)nc12 [I192]	74.7%	26.1%				
Cc1cc(C(=O)O)c2[nH]c(-c3ccc(-n4ccccc4=O)cc3)nc2c1 [I64]	5.7%	1.5%				
O=C(O)c1cccc2[nH]c(-c3ccc(N4CCCCCC4=O)cc3)nc12 [I81, 2-[4-(2-Oxo-azepan-1-yl)-phenyl]-1H-benzoimidazole-4-carboxylic acid]	17.9%	6.7%				
Cc1cc(C(=O)O)c2nc(-c3ccc(-c4ccccc4)cc3)[nH]c2c1 [I14]	102%	76.9%	304 nM	263 nM		
Cc1ccc(C)n1-c1ccc(-c2nc3cccc(C(=O)O)c3[nH]2)cc1 [I185]	59.4%	21.5%				
Cc1cc(C(=O)O)c2[nH]c(-c3ccc(-c4ccccc4)cc3)cc2c1 [I187]	32.1%	15.3%				
COc1cc(-c2nc3c(C(=O)O)cccc3[nH]2)cc(OC)c1-c1ccccc1 [I20]	93.2%	67.1%	975 nM	1000 nM		
CONC(=O)c1cc(C)cc2nc(-c3c(F)c(F)c(-c4ccccc4)c(F)c3F)[nH]c12 [I98]	66.2%	30.1%	2200 nM			
O=C(O)c1cc(F)cc2[nH]c(-c3ccc(-c4cccnc4)cc3)nc12 [I58]	99.7%	69.8%	437 nM			
